Drawing on patent US20250011330A1, “Imidazo[1,2- a]pyrazine and Imidazo[1,2- a]pyridine Based Tyrosyl-DNA Phosphodiesterase I (TDP1) Inhibitors” (The USA, As Represented by the Secretary, Department of …, priority 2021, published 2025), this text covers IC50 for 26 molecules.

Chain of TDP1 (Q9NUW8 whole entry): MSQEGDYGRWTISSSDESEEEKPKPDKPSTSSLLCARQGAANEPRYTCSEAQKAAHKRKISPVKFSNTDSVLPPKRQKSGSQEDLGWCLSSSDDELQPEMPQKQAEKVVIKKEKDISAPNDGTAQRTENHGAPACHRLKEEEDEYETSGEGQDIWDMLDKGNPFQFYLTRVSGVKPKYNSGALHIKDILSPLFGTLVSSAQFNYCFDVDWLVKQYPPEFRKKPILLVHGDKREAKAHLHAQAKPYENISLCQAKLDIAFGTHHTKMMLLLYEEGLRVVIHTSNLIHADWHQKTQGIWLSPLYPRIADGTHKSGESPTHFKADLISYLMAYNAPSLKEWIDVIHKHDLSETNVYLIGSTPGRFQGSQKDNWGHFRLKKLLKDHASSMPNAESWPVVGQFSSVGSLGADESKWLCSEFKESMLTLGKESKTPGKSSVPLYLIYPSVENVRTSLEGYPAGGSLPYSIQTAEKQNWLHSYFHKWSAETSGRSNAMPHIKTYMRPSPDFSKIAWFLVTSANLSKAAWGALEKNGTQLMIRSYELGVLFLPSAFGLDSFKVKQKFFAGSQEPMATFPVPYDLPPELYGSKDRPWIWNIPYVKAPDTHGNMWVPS

The first assay concerns the target TDP1 (Homo sapiens (Human), UniProt Q9NUW8). The experiment in a line: TDP1 gel-based in vitro fluorescence assay. It counts as biochemical. The conditions noted are these: Table 1, imidazo[1,2-a]pyridin-3-amines; read-out: IC50. As for the experimental part:
(TDP assay buffer: 50 mM Tris HCl, pH 7.5, 80 mM KCl, 2 mM EDTA, 1 mM DTT, 40 μg/ml BSA and 0.01% Tween-20. TDP1 (20 mg/mL in 25 mM Tris-HCl pH 7.2, 150 mM NaCl, 2 mM tris(2-carboxyethyl)phosphine) with 2 mL of well solution composed of 0.1 M MOPS/HEPES pH 7.5, 10% (w/v) PEG 8000, 20% (v/v) ethylene glycol, 0.03 M sodium fluoride, 0.03 M sodium bromide, 0.03 M sodium iodide, 0.03 M sodium bromide and sealed over […] well solution. AF647 labelling buffer: Tris-HCl (pH 7.2, 25 mM), NaCl (150 mM), and tris(2-carboxyethyl)phosphine hydrochloride (TCEP, 2 mM).)
(DNA only: Buffer+DMSO. DMSO only: Enzyme+DMSO. Drug: Enzyme+Drug, 25° C., 10 min+DNA, reaction at 25° C., 15 min.)
Gel images were scanned using a Typhoon FLA 9500 scanner (GE Healthcare) and densitometric analyses were performed using the ImageQuant software (GE Healthcare). The IC50 of TDP1 inhibitors was calculated by comparing the percentage of cleavage product (5′Cy5-[…]-p-3′) to DMSO control.
Usually IC50 stands for the concentration needed to halve the response being measured. For the molecule `c1ccc(Nc2c(-c3ccccc3)nc3ccccn23)cc1` [Compound 6t, N,2-Diphenylimidazo[1,2-a]pyridin-3-amine], the IC50 is over 100 µM.

Consider `Cc1ccc(-c2nc3ccccn3c2Nc2ccc(C(=O)O)cc2)cc1` [Compound 8b, 4-((2-(p-Tolyl)imidazo[1,2-a]pyridin-3-yl)amino)benzoic acid], for which the IC50 is 14.8 µM.

As to `O=C(O)c1ccc(Nc2c(-c3ccc(OCc4ccccc4)cc3)nc3ccccn23)cc1` [Compound 8c, 4-((2-(4-(Benzyloxy)phenyl)imidazo[1,2-a]pyridin-3-yl)amino)benzoic acid], the half-maximal inhibitory concentration (IC50) was 12.7 µM.

Still in this assay, the particulars now being: Table 2, imidazo[1,2-a]pyrazin-3-amine core; read-out: IC50.
Regarding `CCOC(=O)c1ccc(Nc2c(-c3ccccc3O)nc3cnccn23)cc1` [Compound 7a], the half-inhibitory concentration (IC50) is over 1000 µM.

Turning to `COc1ccc(-c2nc3cnccn3c2Nc2ccc(C(N)=O)cc2)cc1` [Compound 7c], the IC50 was over 1000 µM.

`O=C(O)c1ccc(Nc2c(-c3cccc(O)c3)nc3cnccn23)cc1` [Compound 7d]: the half-maximal inhibitory concentration (IC50) amounted to 127 µM.

Take `O=C(O)c1ccc(Nc2c(-c3ccc(O)cc3)nc3cnccn23)cc1` [Compound 7e]: the half-maximal inhibitory concentration (IC50) turned out to be 20 µM.

On to `O=C(O)c1ccc(Nc2c(-c3ccccc3)nc3cnccn23)c(O)c1` [Compound 7f], for which the concentration for half-maximal inhibition (IC50) was found to be 18 µM.

As for `COc1ccccc1Nc1c(-c2ccc(C(=O)O)cc2)nc2cnccn12` [Compound 7g], the IC50 worked out at 2300 µM.

Take `Cc1ccc(-c2nc3cnccn3c2Nc2ccc(C(N)=O)cc2)cc1` [Compound 7h]: the half-maximal inhibitory concentration (IC50) is over 1000 µM.

On to `CNC(=O)c1ccc(Nc2c(-c3ccccc3)nc3cnccn23)cc1` [Compound 7i], for which the 50% inhibitory concentration (IC50) was over 1000 µM.

`COC(=O)c1cccc(Nc2c(-c3ccccc3O)nc3cnccn23)c1` [Compound 7j]: the half-inhibitory concentration (IC50) was over 1000 µM.

Turning to `COC(=O)c1ccccc1Nc1c(-c2ccccc2O)nc2cnccn12` [Compound 7k], the IC50 is over 1000 µM.

`O=C(O)c1cccc(Nc2c(-c3ccccc3O)nc3cnccn23)c1` [Compound 7m]: the IC50 came out at 370 µM.

As to `O=C(O)c1cccc(Nc2c(-c3cccc(O)c3)nc3cnccn23)c1` [Compound 7n], the half-maximal inhibitory concentration (IC50) came out at 2050 µM.

On to `O=C(O)c1cccc(Nc2c(-c3ccc(O)cc3)nc3cnccn23)c1` [Compound 7o], for which the half-inhibitory concentration (IC50) worked out at 216 µM.

Turning to `O=C(O)c1cccc(Nc2c(-c3ccc(N4CCOCC4)cc3)nc3cnccn23)c1` [Compound 7p], the 50% inhibitory concentration (IC50) was 942 µM.

In the case of `CN(C)c1ccc(-c2nc3cnccn3c2Nc2cccc(C(=O)O)c2)cc1` [Compound 7q], the IC50 was 2900 µM.

Regarding `CCOC(=O)c1cccc(Nc2c(-c3ccc(C(=O)O)cc3)nc3cnccn23)c1` [Compound 7r, 4-(3-((3-(ethoxycarbonyl)phenyl)amino)imidazo[1,2-a]pyrazin-2-yl)benzoic acid], the IC50 is over 1000 µM.

`CN(C)c1ccc(-c2nc3cnccn3c2Nc2ccc(C(=O)O)cc2)cc1` [Compound 7v]: the IC50 was over 1000 µM.

As to `O=C(O)c1ccc(Nc2c(-c3ccc(Cl)cc3)nc3cnccn23)cc1` [Compound 7w], the IC50 was over 1000 µM.

Take `O=C(O)c1ccc(Nc2c(-c3cccc(Cl)c3)nc3cnccn23)cc1` [Compound 7x]: the IC50 is over 1000 µM.

Consider `O=C(O)c1ccc(Nc2c(-c3cccc(Br)c3)nc3cnccn23)cc1` [Compound 7y], for which the IC50 was over 1000 µM.

For `O=C(O)c1ccccc1Nc1c(-c2ccccc2O)nc2cnccn12` [Compound 7′s, 2-((2-(2-Hydroxyphenyl)imidazo[1,2-a]pyrazin-3-yl)amino)benzoic acid], the IC50 is over 1000 µM.

With `O=C(O)c1ccc(-c2nc3cnccn3c2Nc2cccc(C(=O)O)c2)cc1` [Compound 7′t, 3-((2-(4-Carboxyphenyl)imidazo[1,2-a]pyrazin-3-yl)amino)benzoic acid], the half-maximal inhibitory concentration (IC50) is over 1000 µM.

With `O=C(O)c1ccc(Nc2c(-c3ccc(F)cc3)nc3cnccn23)cc1` [Compound 7′z, 4-((2-(4-Fluorophenyl)imidazo[1,2-a]pyrazin-3-yl)amino)benzoic acid], the IC50 is over 1000 µM.
